Test results taken from ChEMBL document CHEMBL3734705, “Synthesis and in vitro cytotoxicity of novel C-12 substituted-14-deoxy-andrographolide derivatives as potent anti-cancer agents” (2015).
Calls of active or inactive are those of the source. The calls are words filed in the database; no cut-off is given here.

Experiments:
U-251 = experiment: Cytotoxicity against human U251 cells assessed as growth level at 10 uM after 48 hrs by SRB assay; assay type: functional
K562 [1] = experiment: Cytotoxicity against human K562 cells assessed as growth level at 10 uM after 48 hrs by SRB assay; assay type: functional
NCI-H23 = experiment: Cytotoxicity against human NCI-H23 cells assessed as growth inhibition at 10 uM after 48 hrs by SRB assay; assay type: functional; conditions: NCI-H23, 48 h, read-out: GI
[2] = Cytotoxicity against human HOP62 cells assessed as growth level at 10 uM after 48 hrs by SRB assay; assay type: functional, HOP-62
NCI-H322M = experiment: Cytotoxicity against human NCI-H322M cells assessed as growth level at 10 uM after 48 hrs by SRB assay; assay type: functional
HT-29 = experiment: Cytotoxicity against human HT-29 cells assessed as growth level at 10 uM after 48 hrs by SRB assay; assay type: functional
Malme-3M = experiment: Cytotoxicity against human MALME-3M cells assessed as growth level at 10 uM after 48 hrs by SRB assay; assay type: functional
[3] = Cytotoxicity against human BT549 cells assessed as growth inhibition at 10 uM after 48 hrs by SRB assay; assay type: functional; conditions: BT-549, 48 h, read-out: GI
[4] = Cytotoxicity against human UO31 cells assessed as growth level at 10 uM after 48 hrs by SRB assay; assay type: functional, UO-31
[5] = Cytotoxicity against human OVCAR4 cells assessed as growth level at 10 uM after 48 hrs by SRB assay; assay type: functional, OVCAR-4
[6] = Cytotoxicity against human HOP62 cells assessed as growth inhibition at 10 uM after 48 hrs by SRB assay; assay type: functional; conditions: HOP-62, 48 h, read-out: GI
[7] = Cytotoxicity against human OVCAR5 cells assessed as growth level at 10 uM after 48 hrs by SRB assay; assay type: functional, OVCAR-5
[8] = Cytotoxicity against human LOXIMVI cells assessed as growth inhibition at 10 uM after 48 hrs by SRB assay; assay type: functional; conditions: LOX IMVI, read-out: GI
[9] = Cytotoxicity against human SF268 cells assessed as growth inhibition at 10 uM after 48 hrs by SRB assay; assay type: functional; conditions: SF-268, 48 h, read-out: GI
786-0 = experiment: Cytotoxicity against human 786-0 cells assessed as growth level at 10 uM after 48 hrs by SRB assay; assay type: functional
A549 [10] = experiment: Cytotoxicity against human A549 cells assessed as growth inhibition at 10 uM after 48 hrs by SRB assay; assay type: functional; conditions: A549, 48 h, read-out: GI
NCI-H226 = experiment: Cytotoxicity against human NCI-H226 cells assessed as growth level at 10 uM after 48 hrs by SRB assay; assay type: functional
[11] = Cytotoxicity against human SF295 cells assessed as growth level at 10 uM after 48 hrs by SRB assay; assay type: functional, SF-295
[12] = Cytotoxicity against human RPMI8226 cells assessed as growth inhibition at 10 uM after 48 hrs by SRB assay; assay type: functional; conditions: RPMI-8226, 48 h, read-out: GI
[13] = Cytotoxicity against human SNB19 cells assessed as growth level at 10 uM after 48 hrs by SRB assay; assay type: functional, SNB-19
SK-MEL-28 = experiment: Cytotoxicity against human SK-MEL-28 cells assessed as growth inhibition at 10 uM after 48 hrs by SRB assay; assay type: functional; conditions: SK-MEL-28, 48 h, read-out: GI
[14] = Cytotoxicity against human MOLT4 cells assessed as growth inhibition at 10 uM after 48 hrs by SRB assay; assay type: functional; conditions: MOLT-4, 48 h, read-out: GI
[15] = Cytotoxicity against human RXF393 cells assessed as growth level at 10 uM after 48 hrs by SRB assay; assay type: functional, RXF 393
NCI-H522 [16] = experiment: Cytotoxicity against human NCI-H522 cells assessed as growth inhibition at 10 uM after 48 hrs by SRB assay; assay type: functional; conditions: NCI-H522, 48 h, read-out: GI
[17] = Cytotoxicity against human TK10 cells assessed as growth level at 10 uM after 48 hrs by SRB assay; assay type: functional, TK-10
SR = experiment: Cytotoxicity against human SR cells assessed as growth inhibition at 10 uM after 48 hrs by SRB assay; assay type: functional; conditions: read-out: GI
T47D = experiment: Cytotoxicity against human T47D cells assessed as growth inhibition at 10 uM after 48 hrs by SRB assay; assay type: functional; conditions: read-out: GI
[18] = Cytotoxicity against human LOXIMVI cells assessed as growth level at 10 uM after 48 hrs by SRB assay; assay type: functional, LOX IMVI
[19] = Cytotoxicity against human HCT116 cells assessed as growth inhibition at 10 uM after 48 hrs by SRB assay; assay type: functional; conditions: HCT-116, 48 h, read-out: GI
[20] = Cytotoxicity against human MOLT4 cells assessed as growth level at 10 uM after 48 hrs by SRB assay; assay type: functional, MOLT-4
EKVX = experiment: Cytotoxicity against human EKVX cells assessed as growth inhibition at 10 uM after 48 hrs by SRB assay; assay type: functional
[21] = Cytotoxicity against human SW620 cells assessed as growth inhibition at 10 uM after 48 hrs by SRB assay; assay type: functional; conditions: SW-620, 48 h, read-out: GI
K562 [22] = experiment: Cytotoxicity against human K562 cells assessed as growth inhibition at 10 uM after 48 hrs by SRB assay; assay type: functional; conditions: K562, 48 h, read-out: GI
[23] = Cytotoxicity against human HOP92 cells assessed as growth level at 10 uM after 48 hrs by SRB assay; assay type: functional, HOP-92
[24] = Cytotoxicity against human TK10 cells assessed as growth inhibition at 10 uM after 48 hrs by SRB assay; assay type: functional; conditions: TK-10, 48 h, read-out: GI
[25] = Cytotoxicity against human BT549 cells assessed as growth level at 10 uM after 48 hrs by SRB assay; assay type: functional, BT-549
[26] = Cytotoxicity against human SF539 cells assessed as growth level at 10 uM after 48 hrs by SRB assay; assay type: functional, SF-539
[27] = Cytotoxicity against human PC3 cells assessed as growth inhibition at 10 uM after 48 hrs by SRB assay; assay type: functional; conditions: PC-3, 48 h, read-out: GI
A549 [28] = experiment: Cytotoxicity against human A549 cells assessed as growth level at 10 uM after 48 hrs by SRB assay; assay type: functional
[29] = Cytotoxicity against human DU145 cells assessed as growth level at 10 uM after 48 hrs by SRB assay; assay type: functional, DU-145
[30] = Cytotoxicity against human COLO205 cells assessed as growth level at 10 uM after 48 hrs by SRB assay; assay type: functional, COLO 205
[31] = Cytotoxicity against human Caki1 cells assessed as growth inhibition at 10 uM after 48 hrs by SRB assay; assay type: functional; conditions: CAKI-1, 48 h, read-out: GI
MDA-MB-468 = experiment: Cytotoxicity against human MDA-MB-468 cells assessed as growth inhibition at 10 uM after 48 hrs by SRB assay; assay type: functional; conditions: MDA-MB-468, 48 h, read-out: GI
CCRF-CEM = experiment: Cytotoxicity against human CCRF-CEM cells assessed as growth inhibition at 10 uM after 48 hrs by SRB assay; assay type: functional; conditions: read-out: GI
NCI-H522 [32] = experiment: Cytotoxicity against human NCI-H522 cells assessed as growth level at 10 uM after 48 hrs by SRB assay; assay type: functional

With C=C1CC[C@@H]2[C@](C)(COC(C)=O)[C@H](OC(C)=O)CC[C@@]2(C)[C@@H]1C/C=C1/C(=O)OC[C@H]1OC(C)=O the Activity (U-251) was 54.02%, the Activity (K562 [1]) was 11.07% and the inhibition of growth at 10 µM (NCI-H23) was 19.1%. It also gave an Activity [2] of 75.75%, an Activity (NCI-H322M) of 101.35% and an Activity (HT-29) of -39.4%. For the same compound, the Activity (Malme-3M) was 77.72%, the inhibition of growth at 10 µM [3] was 72.6% and the Activity [4] was 62.83%. For the same compound, the Activity [5] was 66.49%, the inhibition of growth at 10 µM [6] was 24.2% and the Activity [7] was 53.7%. For the same compound, the inhibition of growth at 10 µM [8] was 74.4%, the inhibition of growth at 10 µM [9] was 12.9% and the Activity (786-0) was -10.88%. It also gave an inhibition of growth at 10 µM (A549 [10]) of 14.2%, an Activity (NCI-H226) of 23.61% and an Activity [11] of 95.02%. For the same compound, the inhibition of growth at 10 µM [12] was 85.9%, the Activity [13] was 82.96% and the inhibition of growth at 10 µM (SK-MEL-28) was 62.2%. It also gave an inhibition of growth at 10 µM [14] of 6.05%, an Activity [15] of -7.35% and an inhibition of growth at 10 µM (NCI-H522 [16]) of 41.6%. For the same compound, the Activity [17] was 16.88%, the inhibition of growth at 10 µM (SR) was 94.4% and the inhibition of growth at 10 µM (T47D) was 57.2%. It also gave an Activity [18] of -74.4%, an inhibition of growth at 10 µM [19] of 37.3% and an Activity [20] of -6.05%. The “growth inhibition (GI)” value (EKVX) was “inactive”, the inhibition of growth at 10 µM [21] was 21.9% and the inhibition of growth at 10 µM (K562 [22]) was 88.9%. It also gave an Activity [23] of 71.9%, an inhibition of growth at 10 µM [24] of 83.1% and an Activity [25] of 27.38%. For the same compound, the Activity [26] was 8.54%, the inhibition of growth at 10 µM [27] was 11.5% and the Activity (A549 [28]) was 85.77%. It also gave an Activity [29] of 50.88%, an Activity [30] of 22.03% and an inhibition of growth at 10 µM [31] of 18.5%. For the same compound, the inhibition of growth at 10 µM (MDA-MB-468) was 92%, the inhibition of growth at 10 µM (CCRF-CEM) was 11.4% and the Activity (NCI-H522 [32]) was -41.64%.

For C=C1CC[C@@H]2[C@](C)(COC(C)=O)[C@H](OC(C)=O)CC[C@@]2(C)[C@@H]1CC(NCCCC)C1=CCOC1=O (mixture of isomers), the Activity (U-251) was 86.76%, the Activity (K562 [1]) was 69.53% and the inhibition of growth at 10 µM (NCI-H23) was 10.3%. The Activity [2] was 93.96%, the Activity (NCI-H322M) was 96.22% and the Activity (HT-29) was 82.56%. It also gave an Activity (Malme-3M) of 97.57%, an inhibition of growth at 10 µM [3] of 10.8% and an Activity [4] of 84%. For the same compound, the Activity [5] was 85.7%, the inhibition of growth at 10 µM [6] was 6.04% and the Activity [7] was 95.04%. The inhibition of growth at 10 µM [8] was 9.61%, the inhibition of growth at 10 µM [9] was 23% and the Activity (786-0) was 96.07%. The inhibition of growth at 10 µM (A549 [10]) was 18.8%, the Activity (NCI-H226) was 75.67% and the Activity [11] was 94.28%. The inhibition of growth at 10 µM [12] was 39.5%, the Activity [13] was 87.32% and the inhibition of growth at 10 µM (SK-MEL-28) was 1.91%. For the same compound, the inhibition of growth at 10 µM [14] was 44.5%, the Activity [15] was 104.19% and the inhibition of growth at 10 µM (NCI-H522 [16]) was 20.9%. It also gave an Activity [17] of 99.06%, an inhibition of growth at 10 µM (SR) of 51.5% and an inhibition of growth at 10 µM (T47D) of 28%. For the same compound, the Activity [18] was 90.39%, the inhibition of growth at 10 µM [19] was 19.8% and the Activity [20] was 55.54%. The inhibition of growth at 10 µM (EKVX; read-out: GI) was 28.6%, the inhibition of growth at 10 µM [21] was 4.99% and the inhibition of growth at 10 µM (K562 [22]) was 30.5%. The Activity [23] was 53.32%, the inhibition of growth at 10 µM [24] was 0.94% and the Activity [25] was 89.2%. It also gave an Activity [26] of 90.54%, an inhibition of growth at 10 µM [27] of 48.8% and an Activity (A549 [28]) of 81.23%. For the same compound, the Activity [29] was 99.18%, the Activity [30] was 82.08% and the inhibition of growth at 10 µM [31] was 9.05%. The inhibition of growth at 10 µM (MDA-MB-468) was 33.8%, the inhibition of growth at 10 µM (CCRF-CEM) was 19.3% and the Activity (NCI-H522 [32]) was 79.13%.
